Measurements from patent publication US4595689A, “4-(8-bromodibenz[b,f]oxepin-10-yl)-1,2,3,6-tetrahydro-1-methylpyridine and 4-(2-bromodibenzo[a,d]cyclophetatriene-11-yl)-1,2,3,6-tetrahydro-1-methy lpyridine for dermal inflammation” (Hoffmann-LaRoche Inc., priority 1984, dated 1986).

System: cantharidin-induced inflammation of rat ear
Experiment: Cantharidin induced inflammation in the rat (topical activity, ear skin punch weight)
Format: in vivo, rat (Charles River CD, 21-day-old male)
Conditions: topical dose 100 μg, with 400 μg cantharidin in 0.1 ml vehicle on rat ears; 72 hours
Experimental: CANTHARIDIN INDUCED INFLAMMATION IN THE RAT
A solvent vehicle was prepared which was used to apply cantharidin or cantharidin and test compound to rats. The solvent vehicle was a solution of 1 part ethanol, 1.5 parts collodion, 2 parts acetone and 3 parts diethylether. When it was desired to apply cantharidin to rats, cantharidin was added to the solvent vehicle in such an amount that there were 400 μg of cantharidin in 0.1 ml of solvent vehicle. When it was desired to apply cantharidin and test compound to rats, cantharidin and test compound were added to the solvent vehicle in such amounts that there were both 400 μg of cantharidin and 100 μg of test compound in 0.1 ml of solvent vehicle. Cantharidin or cantharidin plus the test compound at a dose of 100 μg were applied topically to the outer surface of the ears of Charles River CD 21-day-old male rats in a volume of 0.1 ml of solvent vehicle described above. Separate groups of rats were treated with solvent vehicle alone, cantharidin alone, and cantharidin plus test compound. Autopsy was carried out 72 hours after cantharidin administration. Uniform punches were obtained through the site of application and weighed. Weight changes reflect effects on both the fluid and tissue components of the inflammatory process. […]

SMILES | % Inhibition of Inflammation
CN1CC=C(C2=Cc3ccccc3Cc3ccc(Br)cc32)CC1 [4-(2-bromodibenzo[a,d]cycloheptatriene-11-yl)-1,2,3,6-tetrahydro-1-methylpyridine] | 37%
CN1CC=C(C2=Cc3ccccc3Oc3ccc(Br)cc32)CC1 [4-(8-bromodibenz[b,f]oxepin-10-yl)-1,2,3,6-tetrahydro-1-methylpyridine] | 36%
